Experimental data: patent publication US9012439B2, “Use of electrophilic compounds for inducing platelet production or maintaining platelet function” (University of Rochester, priority 2007, dated 2015)

Assays:
[1] = system: mouse megakaryocyte progenitors (Meg-CFC); experiment: Megakaryocyte progenitor (Meg-CFC) assay on bone marrow of treated mice; type: in vivo
Experimental: Primary mouse bone marrow cells were suspended in IMDM at a concentration of 8×10^6 cells/mL. Two-hundred thousand cells were plated in IMDM supplemented with 20% BIT9500, 0.2% 2-mercaptoethanol, 2% Glutamax, and 20% Cellgro-H20 (Mediatech, Herndon, Va.) and cultured with rhTPO (50 ng/mL), IL-3 (10 ng/mL) (Preprotech, Rocky Hill, N.J.), IL-6 (20 ng/mL) (Preprotech), IL-11 (Preprotech) (50 ng/mL), and collagen at 37° for 7 days (Tober et al., “The Megakaryocyte Lineage Originates from Hemangioblast Precursors and is an Integral Component Both of Primitive and of Definitive Hematopoiesis,” Blood 109:1433-1441 (2007), which is hereby incorporated by reference in its entirety). Collagen gels were dehydrated, fixed, and labeled with GPIbβ and GPV, modified by ABC (Vector Labs, Burlingame, Calif.), and developed in Vector Red (Vector Labs). Meg-CFC were defined by their ability to generate colonies containing at least three megakaryocytes.

C57BL/6 mice [2] = experiment: Irradiation-induced thrombocytopenia (5 Gy total body irradiation); type: in vivo, mouse (C57BL/6); details: 5 Gy
Experimental: (§1) Seven or 8-week-old male C57BL/6 mice (Jackson Laboratories) were either exposed to 5 Gy cesium (Cs^137) total body irradiation (TBI) using a Model 8114 6000 Curie Shepherd Cs^137 irradiator (approximately 3200 Curie sealed Cs^137 source) with a dose rate of […] or left unexposed. Mice (n=4) received intravenous injections of vehicle (8% DMSO) or 15d-PGJ2 (1 mg/kg) or CDDO-Me (250 μg/kg) for 4 consecutive days from day 1 (days 1, 2, 3 and 4 post-irradiation). Blood was obtained from the aorta or the orbital sinus. Platelets were counted prior to radiation exposure and after radiation exposure on day 10, day 22, and day 31 in Example 7, or days 4, 10, 16, and 21 in Example 9 using the Heska® CBC-Diff™ Veterinary Analyzer (Fort Collins, Colo.). Data are expressed as average platelet counts from two separate experiments. For the unirradiated mice, platelets were counted on day 4, day 10, and day 15 in Example 7 or on the same days in Example 9.

[3] = system: primary mouse megakaryocytes; experiment: DNA content analysis of primary mouse megakaryocytes; type: cell-based; details: by 24 h
Experimental: Bone marrow was isolated from the femora of male C57BL/6 mice (Jackson Laboratories, Bar Harbor, Me.) and plated at a concentration of 1×10^6 cells per well in 12-well plates in IMDM (Iscove's Modified Dulbecco's Media, Invitrogen) with 20% BIT 9500 (BSA, insulin, transferrin) and supplemented with 100 ng/mL of rhTPO. Cells were cultured for 5 days, following which 15d-PGJ2 (10 μM) was added to the culture medium for 24 h. On the sixth day, cells were examined by phase-contrast microscopy using an inverted microscope (Olympus IX81) and images were captured using SPOT RT software (New Hyde Park, N.Y.). Megakaryocytes were identified by preincubating with anti-mouse CD16/32 (FcγR-blocking antibody) and then incubating with PE-conjugated hamster anti-mouse CD41 antibody.
Cells were fixed in 95% ethanol, treated with RNAse (Sigma) followed by 20 μg/mL propidium iodide (Sigma) to stain DNA, and analyzed by flow cytometry.

Meg-01 cells [4] = experiment: Platelet production from Meg-01 cells (flow cytometry); type: cell-based, human; details: Meg-01 cells, 10 μM, 24 h
Experimental: Meg-01 and M07e cells were purchased from the American Type Culture Collection (Rockville, Md.) and Dami cells were a generous gift from Dr. Patricia J. Simpson-Haidaris (University of Rochester). All cells were cultured in RPMI-1640 tissue culture medium (Invitrogen) supplemented with 5% fetal bovine serum (FBS; Invitrogen), 10 mM HEPES (N-2-hydroxyethylpiperazine-N′-2-ethanesulfonic acid; Sigma), 2 mM L-glutamine (Invitrogen), 4.5 g/L glucose (Invitrogen), and 50 μg/mL gentamicin (Invitrogen). M07e cells were also supplemented with 100 ng/mL of granulocyte monocyte-colony stimulating factor (GM-CSF, R&D Systems). All treatments were performed in normal growth media. Dimethyl sulfoxide (DMSO) was used as a vehicle (control) in the experiments described below.
Platelets were isolated from megakaryocytes by centrifugation at 150 xg for 10 min. Supernatants underwent sequential centrifugation (500 xg for 10 min and 1000×g for 10 min). The remaining platelet pellet was fixed then permeabilized with a CD61 or CD41 antibody. 7-AAD (BD Pharmingen) was added for 10 min before analyzing the cells by flow cytometry. Platelets were identified using three well-described parameters (Patel et al., “The Biogenesis of Platelets from Megakaryocyte Proplatelets,” J Clin Invest 115:3348-3354 (2005); Breton-Gorius et al., “Expression of Platelet Proteins During the In Vitro and In Vivo Differentiation of Megakaryocytes and Morphological Aspects of Their Maturation,” Semin Hematol 23:43-67 (1986); Ogura et al., “Establishment of a Novel Human Megakaryoblastic Leukemia Cell Line, MEG-01, With Positive Philadelphia Chromosome,” Blood 66:1384-1392 (1985) and Franks et al., “A Fluorescence Microscopy Method for Quantifying Levels of Prostaglandin Endoperoxide H Synthase-1 and CD-41 in MEG-01 Cells,” Biol Proced Online 3:54-63 (2001), each of which is hereby incorporated by reference in its entirety), size (using normal human platelets as a control), presence of CD61 or CD41 and lack of DNA as determined by the absence of 7-AAD staining Ten thousand platelet events were collected and platelets were quantified by rate (platelet events/second) (Chung et al., “Platelet Activation in Acute, Decompensated Congestive Heart Failure,” Thromb Res 120:709-713 (2007), which is hereby incorporated by reference in its entirety.
A 19 by target sequence was selected to knock down PPARγ. PPARγ was cloned downstream of the RNA polymerase III U6 promoter and subcloned into a FG12 lentiviral vector which expresses green fluorescent protein (GFP) under the Ubiquitin C promoter. HEK 293 cells expressing this siRNA PPARγ had reduced PPARγ protein levels. To make the lentivirus, HEK 293 cells were co-transfected with 3 plasmids: the envelope vector (CMV-VSVG), the transfer vector (FG12-shRNAPPAR), and the packaging construct (pCMVΔ89.2 (gag/pol proteins)). Viral supernatants were collected every 8 h for 2 days and concentrated by ultracentrifugation at 50,000×g for 2 h at 4° C. using a Beckman SW 28 rotor. Viral titers were determined by infection of HeLa cells with serial dilutions of the viral stocks. Meg-01 cells were infected at a multiplicity of infection (MOI) of 20. After 48 h, approximately 56% of the PPARγ siRNA cells were transduced as determined by flow cytometry. The GFP positive (+) cells were then sorted by FACS and grown in RPMI with 5% FBS.

Meg-01 cells [5] = experiment: Reactive oxygen species production in Meg-01 cells (carboxy-H2DCFDA, MitoSOX Red); type: cell-based, human; details: Meg-01 cells, 1 h and 6 h; for change in percentage of cells generating mitochondrial superoxide (MitoSOX Red): 10 μM
Experimental: Ten μM carboxy-H2DCFDA was added to cells for 20 min at RT. The cells were washed and immediately analyzed by flow cytometry. Five μM of MitoSOX Red dye in HBSS containing Mg^2+ and Ca^2+ was added to the cells for 15 min at 37° C. The cells were washed in HBSS and analyzed by flow cytometry.

C57BL/6 mice [6] = experiment: Circulating platelet number in unirradiated mice; type: in vivo, mouse (C57BL/6); details: unirradiated C57BL/6 mice, 1 mg/kg IV four consecutive days, d 4
Experimental: as §1

PPARγ = target: T1, PPARγ (Homo sapiens, UniProt P37231); experiment: PPARγ gene reporter analysis (PPRE-luciferase) in Meg-01 cells; type: cell-based; details: 10 μM, 24 h after ligand treatment
T1 construct: Meg-01 cells were plated at a density of […] cells per well in a E-well plate and transfected; endogenous in cells; host or cells: Meg-01 cells
T1 sequence (P37231 1-505): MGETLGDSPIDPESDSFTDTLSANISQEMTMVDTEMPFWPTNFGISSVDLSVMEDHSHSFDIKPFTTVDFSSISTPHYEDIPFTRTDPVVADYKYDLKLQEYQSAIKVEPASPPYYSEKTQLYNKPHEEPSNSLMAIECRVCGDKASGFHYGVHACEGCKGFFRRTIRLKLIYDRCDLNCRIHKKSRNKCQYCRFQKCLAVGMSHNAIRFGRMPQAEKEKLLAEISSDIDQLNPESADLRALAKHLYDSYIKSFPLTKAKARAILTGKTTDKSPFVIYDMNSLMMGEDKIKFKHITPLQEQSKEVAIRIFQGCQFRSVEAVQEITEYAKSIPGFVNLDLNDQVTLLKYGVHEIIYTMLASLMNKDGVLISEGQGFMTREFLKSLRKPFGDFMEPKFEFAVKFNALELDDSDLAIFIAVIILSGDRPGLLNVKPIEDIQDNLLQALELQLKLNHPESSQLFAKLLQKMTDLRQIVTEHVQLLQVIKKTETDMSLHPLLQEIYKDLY
Experimental: Meg-01 cells were plated at a density of […] cells per well in a […] and transfected, using lipofectamine LTX (Invitrogen), with a PPRE (Peroxisome Proliferator Response Element)-luciferase reporter plasmid containing three copies of the ACO-PPRE (a gift from Dr. B. Seed, Massachusetts General Hospital, Boston, Mass.). […] Transfection efficiency was determined by transfecting the cells with green fluorescent protein (GFP) plasmid and determining the percentage of cells that were GFP+ by flow cytometry. […] Luciferase activity was assessed 24 h after ligand treatment using the Promega Luciferase Assay System, and relative light units (RLU) were determined using a Lumicount Microplate Luminometer (Packard Instrument Co., Meriden, Conn.).

PPARγ activation (PPRE-luciferase activity) (PPARγ) | Compound | megakaryocyte number [1] | percentage of megakaryocytes producing proplatelets ([1]; mice injected 250 μg/kg for three consecutive days, 7 days of culture) | Meg-CFC colony formation compared to vehicle control ([1]; normal mice, 250 μg/kg for three consecutive days, bone marrow plated day 4) | platelet counts (C57BL/6 mice [2]; 250 μg/kg days 1-4, day 4) | platelet counts (C57BL/6 mice [2]; 250 μg/kg days 1-4, days 10 and 16) | primary mouse megakaryocyte ploidy [3] | platelet production (Meg-01 cells [4]) | change in percentage of cells generating mitochondrial superoxide (MitoSOX Red) (Meg-01 cells [5]) | change in percentage of cells generating ROS (carboxy-H2DCFDA) (Meg-01 cells [5]) | levels of circulating platelets on d 4 (C57BL/6 mice [6])
 | COC(=O)[C@]12CCC(C)(C)C[C@H]1[C@H]1C(=O)C=C3[C@@]4(C)C=C(C#N)C(=O)C(C)(C)[C@@H]4CC[C@@]3(C)[C@]1(C)CC2 [CDDO-Me, methyl-2-cyano-3,12-dioxooleana-1,9-dien-28-oate] | failed to increase megakaryocyte number | significantly augmented the percentage of megakaryocytes producing proplatelets | significantly enhanced Meg-CFC colony formation | increased platelet counts | significantly improved platelet counts | enhanced primary mouse megakaryocyte ploidy |  |  |  | 
 | CCCCC/C=C\C=C1\C(=O)C[C@@H](O)[C@H]1C/C=C\CCCC(=O)O [15d-PGD2, 15-deoxy-Δ^12,14-PG22, reference compound] |  |  |  |  |  |  | failed to enhance platelet production | failed to increase the percentage of cells generating mitochondrial superoxide | failed to increase the percentage of cells generating ROS | significant increase in the levels of circulating platelets
activated PPARγ | CCCCC/C=C\C=C1\C(=O)CC[C@@H]1C/C=C\CCCC(=O)O [9,10 dihydro-15d-PGJ2, reference compound] |  |  |  |  |  |  | failed to enhance platelet production | failed to increase the percentage of cells generating mitochondrial superoxide | failed to increase the percentage of cells generating ROS | 
